ChEMBL document CHEMBL5576074, “[1,2,4]Triazolo[1,5-a]pyrimidine derivatives: Structure-activity relationship study leading to highly selective ENPP1 inhibitors” (Bioorg Med Chem Lett, 2024)

Key:
[1] = target: T1, Ectonucleotide pyrophosphatase/phosphodiesterase family member 1 (Homo sapiens, UniProt P22413); test: Inhibition of ENPP1 (unknown origin) assessed as reduction in ATP hydrolysis by AMP-Glo assay
T1 sequence (P22413 whole entry): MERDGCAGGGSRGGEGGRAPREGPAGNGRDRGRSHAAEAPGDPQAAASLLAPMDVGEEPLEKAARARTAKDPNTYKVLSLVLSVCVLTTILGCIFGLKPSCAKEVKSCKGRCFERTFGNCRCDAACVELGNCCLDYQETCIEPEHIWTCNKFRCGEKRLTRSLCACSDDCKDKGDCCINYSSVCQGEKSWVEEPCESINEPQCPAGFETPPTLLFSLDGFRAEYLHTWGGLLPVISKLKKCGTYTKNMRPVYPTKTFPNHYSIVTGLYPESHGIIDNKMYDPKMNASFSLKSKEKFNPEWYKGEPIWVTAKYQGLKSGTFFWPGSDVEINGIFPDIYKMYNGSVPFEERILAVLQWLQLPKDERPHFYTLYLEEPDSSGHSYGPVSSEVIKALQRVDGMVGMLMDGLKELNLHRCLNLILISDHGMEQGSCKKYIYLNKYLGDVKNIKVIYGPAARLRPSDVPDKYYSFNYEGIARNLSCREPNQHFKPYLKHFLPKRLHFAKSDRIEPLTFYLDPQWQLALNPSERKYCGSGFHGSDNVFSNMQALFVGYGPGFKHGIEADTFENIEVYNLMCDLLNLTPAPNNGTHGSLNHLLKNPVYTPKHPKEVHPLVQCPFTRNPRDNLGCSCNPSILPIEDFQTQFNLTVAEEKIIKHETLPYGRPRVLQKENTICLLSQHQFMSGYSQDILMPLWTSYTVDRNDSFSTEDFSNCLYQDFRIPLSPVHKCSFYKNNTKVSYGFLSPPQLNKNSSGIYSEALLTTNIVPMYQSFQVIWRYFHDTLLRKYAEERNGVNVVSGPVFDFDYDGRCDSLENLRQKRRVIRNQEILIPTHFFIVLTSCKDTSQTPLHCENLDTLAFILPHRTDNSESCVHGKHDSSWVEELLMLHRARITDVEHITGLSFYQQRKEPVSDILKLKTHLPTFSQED

[2] = Cytotoxicity against human HepG2-Dual cells upto 50 uM; type: toxicity, cell-based; conditions: hepg2, 50 µM
[3] = target: T1, Ectonucleotide pyrophosphatase/phosphodiesterase family member 1; test: Inhibition of ENPP1 (unknown origin) assessed as reduction in 2'3'-cGAMP hydrolysis by AMP-Glo assay
[4] = target: T2, Ectonucleotide pyrophosphatase/phosphodiesterase family member 3 (Homo sapiens) (UniProt O14638); test: Inhibition of ENPP3 (unknown origin) at 50 uM relative to control
T2 sequence (whole entry): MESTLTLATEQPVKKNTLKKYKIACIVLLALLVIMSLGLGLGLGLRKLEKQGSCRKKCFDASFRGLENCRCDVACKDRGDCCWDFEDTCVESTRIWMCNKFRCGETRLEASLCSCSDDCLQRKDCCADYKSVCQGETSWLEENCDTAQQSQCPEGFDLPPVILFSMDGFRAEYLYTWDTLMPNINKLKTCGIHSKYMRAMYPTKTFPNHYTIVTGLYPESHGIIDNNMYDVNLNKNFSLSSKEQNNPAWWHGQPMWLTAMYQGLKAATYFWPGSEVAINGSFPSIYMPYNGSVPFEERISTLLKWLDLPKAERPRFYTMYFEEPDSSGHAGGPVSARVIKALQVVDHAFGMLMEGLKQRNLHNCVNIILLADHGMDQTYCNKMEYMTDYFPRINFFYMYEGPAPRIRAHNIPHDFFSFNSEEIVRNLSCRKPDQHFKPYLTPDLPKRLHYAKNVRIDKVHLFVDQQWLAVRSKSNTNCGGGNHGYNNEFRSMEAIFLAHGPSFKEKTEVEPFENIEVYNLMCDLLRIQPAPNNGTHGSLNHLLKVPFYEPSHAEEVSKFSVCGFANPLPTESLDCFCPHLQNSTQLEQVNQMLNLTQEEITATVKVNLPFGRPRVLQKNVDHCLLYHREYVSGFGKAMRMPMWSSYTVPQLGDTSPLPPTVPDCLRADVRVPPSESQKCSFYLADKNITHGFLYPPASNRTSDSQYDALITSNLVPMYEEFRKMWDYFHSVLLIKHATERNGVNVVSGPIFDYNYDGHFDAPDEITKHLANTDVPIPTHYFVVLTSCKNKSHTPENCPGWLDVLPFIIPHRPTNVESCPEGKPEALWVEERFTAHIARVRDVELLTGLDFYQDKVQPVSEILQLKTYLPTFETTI

[5] = target: T2, Ectonucleotide pyrophosphatase/phosphodiesterase family member 3 (Homo sapiens); test: Inhibition of ENPP3 (unknown origin) assessed as reduction in 2'3'-cGAMP hydrolysis at 50 uM by AMP-Glo assay relative to control
[6] = target: T3, Glycerophosphocholine cholinephosphodiesterase ENPP6 (Homo sapiens) (UniProt Q6UWR7); test: Inhibition of ENPP6 (unknown origin) at 50 uM relative to control
T3 sequence (whole entry): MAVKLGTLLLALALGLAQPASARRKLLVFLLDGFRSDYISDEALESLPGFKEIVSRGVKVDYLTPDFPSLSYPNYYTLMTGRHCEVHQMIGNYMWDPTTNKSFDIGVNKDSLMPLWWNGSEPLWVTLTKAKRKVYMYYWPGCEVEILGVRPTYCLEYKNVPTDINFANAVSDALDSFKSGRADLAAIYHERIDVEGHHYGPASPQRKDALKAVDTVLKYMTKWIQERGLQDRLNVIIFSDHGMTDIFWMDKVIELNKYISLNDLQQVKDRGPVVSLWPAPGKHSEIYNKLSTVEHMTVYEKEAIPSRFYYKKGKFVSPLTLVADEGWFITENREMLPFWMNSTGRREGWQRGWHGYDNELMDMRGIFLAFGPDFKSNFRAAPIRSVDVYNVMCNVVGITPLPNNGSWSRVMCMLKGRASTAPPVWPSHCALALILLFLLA

[7] = target: T4, Autotaxin (Homo sapiens, UniProt Q13822); test: Inhibition of ENPP2 (unknown origin)
[8] = test system: THP1-Dual; test: Cytotoxicity against human THP1-Dual cells upto 50 uM; type: toxicity, cell-based
[9] = target: T5, Ectonucleotide pyrophosphatase/phosphodiesterase family member 3 (Homo sapiens, UniProt O14638); test: Inhibition of ENPP3 (unknown origin)
T5 sequence (O14638 whole entry): T2 sequence (whole entry)

[10] = target: T5, Ectonucleotide pyrophosphatase/phosphodiesterase family member 3; test: Inhibition of ENPP3 (unknown origin) assessed as reduction in ATP hydrolysis by AMP-Glo assay
[11] = target: T1, Ectonucleotide pyrophosphatase/phosphodiesterase family member 1; test: Inhibition of ENPP1 (unknown origin)
[12] = target: T4, Autotaxin; test: Inhibition of ENPP2 (unknown origin) at 50 uM relative to control
[13] = target: T2, Ectonucleotide pyrophosphatase/phosphodiesterase family member 3 (Homo sapiens); test: Inhibition of ENPP3 (unknown origin) assessed as reduction in ATP hydrolysis at 50 uM by AMP-Glo assay relative to control
[14] = target: T6, Glycerophosphocholine cholinephosphodiesterase ENPP6 (Homo sapiens, UniProt Q6UWR7); test: Inhibition of ENPP6 (unknown origin)
T6 sequence (Q6UWR7 whole entry): T3 sequence (whole entry)

[15] = target: T5, Ectonucleotide pyrophosphatase/phosphodiesterase family member 3; test: Inhibition of ENPP3 (unknown origin) assessed as reduction in 2'3'-cGAMP hydrolysis by AMP-Glo assay
[16] = target: T2, Ectonucleotide pyrophosphatase/phosphodiesterase family member 3 (Homo sapiens); test: Inhibition of ENPP3 (unknown origin) at 10 uM relative to control

SMILES	IC50 [1] [µM]	Activity [2]	IC50 [3] [µM]	inhibition [4] [%]	inhibition [5] [%]	inhibition [6] [%]	IC50 [7] [µM]	Activity [8]	IC50 [9] [µM]	IC50 [10] [µM]	IC50 [11] [µM]	inhibition [12] [%]	inhibition [13] [%]	IC50 [14] [µM]	IC50 [15] [µM]	inhibition [16] [%]
Cc1nc2ncnn2c(NCc2ccc(C(=O)O)cc2)c1Cc1cccc(N)c1	8.6	Non-Toxic	9	33	< 1	< 1	> 50	Non-Toxic	> 50	> 50	1.1	8.9	1.6	> 50	> 50	
CCc1nc2ncnn2c(N(CC)Cc2ccccc2)c1Cc1ccccc1																2
Cc1nc2ncnn2c(N(C)C)c1Cc1ccccc1				6.3	< 1	< 1	> 50		> 50	> 50	0.74	31	7.5	> 50	> 50	19
Cc1nc2ncnn2c(N2CCCC2)c1Cc1ccccc1																16
Cc1nc2ncnn2c(N2CCC(C)CC2)c1Cc1ccccc1																2
Cc1nc2ncnn2c(N(C)C)c1Cc1cccc(N)c1	0.85	Non-Toxic	0.82	24	2.2	< 1	> 50	Non-Toxic	> 50	> 50	0.26	11	4.2	> 50	> 50	
Cc1nc2ncnn2c(N(C)C)c1Cc1cccc(O)c1	1.8	Non-Toxic	1.4	24	< 1	< 1	> 50	Non-Toxic	> 50	> 50	0.42	31	< 1	> 50	> 50	
